Reference: patent EP2540163A1, “Nematocide N-cyclopropyl-sulfonylamide derivatives” (Bayer CropScience AG, priority 2011, dated 2013)

Assay: logP by HPLC on reversed-phase column (C 18), EEC Directive 79/831 Annex V.A8, Method B (0.1% aqueous formic acid / acetonitrile, 40°C)
Type: physicochemical
Details: LogP method B: HPLC reversed-phase C 18, 40°C, 0.1% aqueous formic acid / acetonitrile
Description: Calibration was carried out using unbranched alkan-2-ones (having 3 to 16 carbon atoms) with known logP values (determination of the logP values by the retention times using linear interpolation between two successive alkanones).

LogP | Structure (SMILES)
5,8 | CCCCCc1ccc(Oc2ccc(S(=O)(=O)N(C(=O)c3cn(C)nc3OCC)C3CC3)c(Br)c2)cc1 [compound 561]

Same assay, conditions: c18 reversed-phase hplc; LogP method B: HPLC reversed-phase C 18, 40°C, 0.1% aqueous formic acid / acetonitrile

Structure (SMILES) | chromatographic logP
CCCOc1nn(C)cc1C(=O)N(C1CC1)S(=O)(=O)c1ccc(Oc2ccc(Br)c(Cl)c2)cc1Br [compound 304] | 5
CCCOc1nn(C)cc1C(=O)N(C1CC1)S(=O)(=O)c1ccc(Oc2cc(Cl)cc(Cl)c2)cc1Br [compound 305] | 5.1
Cn1nc(C(F)(F)F)c(C(=O)N(C2CC2)S(=O)(=O)c2cccc(Cl)c2Cl)c1F [compound 357] | 3.3
Cn1nc(C(F)(F)F)c(C(=O)N(C2CC2)S(=O)(=O)c2c(Cl)cccc2Cl)c1F [compound 360] | 3.1
Cc1cc(Cl)cc(Cl)c1S(=O)(=O)N(C(=O)c1c(C(F)(F)F)nn(C)c1F)C1CC1 [compound 367] | 2.6
Cn1nc(C(F)(F)F)c(C(=O)N(C2CC2)S(=O)(=O)c2ccc(Oc3ncc(C(F)(F)F)cc3Cl)cc2)c1F [compound 372] | 4.2
CCc1nn(C)c(F)c1C(=O)N(C1CC1)S(=O)(=O)c1cc(Cl)cc(Cl)c1 [compound 376] | 3.9
CCc1nn(C)c(F)c1C(=O)N(C1CC1)S(=O)(=O)c1ccc(Cl)c(Cl)c1 [compound 378] | 3.8
CCc1nn(C)c(F)c1C(=O)N(C1CC1)S(=O)(=O)c1c(Cl)cc(Cl)cc1Cl [compound 379] | 3.6
CCc1nn(C)c(F)c1C(=O)N(C1CC1)S(=O)(=O)c1c(C)nn(C)c1Cl [compound 382] | 2.3
CCc1nn(C)c(F)c1C(=O)N(C1CC1)S(=O)(=O)c1ccc(Br)cc1Cl [compound 385] | 3.4
CCc1nn(C)c(F)c1C(=O)N(C1CC1)S(=O)(=O)c1ccc(Oc2ccc(Cl)cc2)cc1 [compound 391] | 4.2
Cn1nc(C(F)(F)F)c(C(=O)N(C2CC2)S(=O)(=O)c2c(Cl)sc(Cl)c2Br)c1F [compound 436] | 3.9
COc1nn(C)cc1C(=O)N(C1CC1)S(=O)(=O)c1csc(Cl)c1Cl [compound 440] | 3.1
COc1nn(C)cc1C(=O)N(C1CC1)S(=O)(=O)c1c(C)nn(C)c1Cl [compound 444] | 1.7
CCc1nn(C)c(F)c1C(=O)N(C1CC1)S(=O)(=O)c1cnc(Cl)c(Br)c1 [compound 448] | 3.5
COc1nn(C)cc1C(=O)N(C1CC1)S(=O)(=O)c1ccc(Oc2ccc(Cl)cc2Cl)cc1Br [compound 477] | 4.1
COc1nn(C)cc1C(=O)N(C1CC1)S(=O)(=O)c1ccc(Oc2cc(Cl)cc(Cl)c2)cc1Br [compound 481] | 4.3

Structure (SMILES) | chromatographic logP
CCOc1nn(C)cc1C(=O)N(C1CC1)S(=O)(=O)c1ccc(Oc2ccc(C)nc2)cc1Cl [compound 525] | 2.2
CCOc1nn(C)cc1C(=O)N(C1CC1)S(=O)(=O)c1ccc(Oc2ccc(OC)c(OC)c2)cc1Cl [compound 527] | 3.2
CCOc1nn(C)cc1C(=O)N(C1CC1)S(=O)(=O)c1ccc(Oc2ccc(OC)c(OC)c2)c(Cl)c1 [compound 528] | 3.5
CCOc1nn(C)cc1C(=O)N(C1CC1)S(=O)(=O)c1ccc(Oc2ccccc2)cc1Cl [compound 530] | 3.6
CCOc1nn(C)cc1C(=O)N(C1CC1)S(=O)(=O)c1ccc(Oc2ccc(Cl)cc2)cc1Cl [compound 535] | 4
CCOc1nn(C)cc1C(=O)N(C1CC1)S(=O)(=O)c1ccc(Oc2cccc(N(C)C)c2)c(Cl)c1 [compound 539] | 4.1
CCOc1nn(C)cc1C(=O)N(C1CC1)S(=O)(=O)c1ccc(Oc2cccc(Cl)c2)c(Cl)c1 [compound 546] | 4.3
CCOc1nn(C)cc1C(=O)N(C1CC1)S(=O)(=O)c1ccc(Oc2cccc(C(F)(F)F)c2F)c(Cl)c1 [compound 547] | 4.3
CCOc1nn(C)cc1C(=O)N(C1CC1)S(=O)(=O)c1ccc(Oc2ccc(C(F)(F)F)cc2)c(Cl)c1 [compound 550] | 4.4
CCOc1nn(C)cc1C(=O)N(C1CC1)S(=O)(=O)c1ccc(Oc2cccc(Br)c2)c(Cl)c1 [compound 551] | 4.5
CCOc1nn(C)cc1C(=O)N(C1CC1)S(=O)(=O)c1ccc(Oc2cccc(OC(F)(F)F)c2)c(Cl)c1 [compound 554] | 4.5
CCOc1nn(C)cc1C(=O)N(C1CC1)S(=O)(=O)c1ccc(Oc2ccc(Cl)cc2Cl)c(Cl)c1 [compound 555] | 4.7
CCCCCc1ccc(Oc2ccc(S(=O)(=O)N(C(=O)c3cn(C)nc3OCC)C3CC3)c(Cl)c2)cc1 [compound 560] | 5.6
Cc1nn(C)c(C(=O)N(C2CC2)S(=O)(=O)c2cccc(Cl)c2Cl)c1Cl [compound 586] | 3.7
Cc1nocc1C(=O)N(C1CC1)S(=O)(=O)c1cccc(Cl)c1Cl [compound 599] | 3
Cc1nocc1C(=O)N(C1CC1)S(=O)(=O)c1ccc(Cl)c(Cl)c1Cl [compound 600] | 3.6
Cc1oncc1C(=O)N(C1CC1)S(=O)(=O)c1cccc(Cl)c1Cl [compound 603] | 2.2

Now from value to compound:

chromatographic logP | Structure (SMILES)
4.3 | COc1nn(C)c(Cl)c1C(=O)N(C1CC1)S(=O)(=O)c1ccc(Oc2ccc(Br)cc2)cc1 [compound 284]
4.9 | CCCOc1nn(C)cc1C(=O)N(C1CC1)S(=O)(=O)c1ccc(Oc2ccc(Cl)c(C(F)(F)F)c2)cc1Br [compound 302]
4 | Cn1nc(C(F)(F)F)c(C(=O)N(C2CC2)S(=O)(=O)c2cc(Cl)c(Cl)cc2Cl)c1F [compound 361]
3.1 | Cn1nc(C(F)(F)F)c(C(=O)N(C2CC2)S(=O)(=O)c2ccc(F)cc2Cl)c1F [compound 362]
3.7 | Cn1nc(C(F)(F)F)c(C(=O)N(C2CC2)S(=O)(=O)c2c(Cl)cc(Cl)cc2Cl)c1F [compound 363]
3.5 | CCc1nn(C)c(F)c1C(=O)N(C1CC1)S(=O)(=O)c1cc(C(F)(F)F)ccc1Cl [compound 384]
3.8 | CCc1nn(C)c(F)c1C(=O)N(C1CC1)S(=O)(=O)c1c(Cl)cc(C(F)(F)F)cc1Cl [compound 387]
3 | COc1nn(C)cc1C(=O)N(C1CC1)S(=O)(=O)c1c(Cl)cc(C(F)(F)F)cc1Cl [compound 396]
3.8 | CCc1nn(C)c(F)c1C(=O)N(C1CC1)S(=O)(=O)c1c(Cl)sc(Cl)c1Br [compound 437]
4 | CCc1nn(C)c(F)c1C(=O)N(C1CC1)S(=O)(=O)c1csc(Cl)c1Cl [compound 438]
2.6 | Cc1nn(C)c(Cl)c1S(=O)(=O)N(C(=O)c1c(C(F)(F)F)nn(C)c1F)C1CC1 [compound 443]
2 | COc1nn(C)cc1C(=O)N(C1CC1)S(=O)(=O)c1cnc(Cl)c(Br)c1 [compound 449]
2.7 | COc1nn(C)cc1C(=O)N(C1CC1)S(=O)(=O)c1c(Cl)cc(Cl)cc1Cl [compound 461]
3.7 | COc1nn(C)cc1C(=O)N(C1CC1)S(=O)(=O)c1ccc(Oc2cccc(Cl)c2)cc1Br [compound 468]
4.2 | COc1nn(C)cc1C(=O)N(C1CC1)S(=O)(=O)c1ccc(Oc2ccc(Cl)c(Cl)c2)cc1Br [compound 478]
4.2 | COc1nn(C)cc1C(=O)N(C1CC1)S(=O)(=O)c1ccc(Oc2ccc(Br)c(Cl)c2)cc1Br [compound 480]
3.5 | CCOc1nn(C)cc1C(=O)N(C1CC1)S(=O)(=O)c1ccc(Oc2ccc(OC)cc2)cc1Cl [compound 529]

chromatographic logP | Structure (SMILES)
3.8 | CCOc1nn(C)cc1C(=O)N(C1CC1)S(=O)(=O)c1ccc(Oc2ccc(OC)cc2)c(Cl)c1 [compound 531]
3.8 | CCOc1nn(C)cc1C(=O)N(C1CC1)S(=O)(=O)c1ccc(Oc2cccc(N(C)C)c2)cc1Cl [compound 532]
3.9 | CCOc1nn(C)cc1C(=O)N(C1CC1)S(=O)(=O)c1ccc(Oc2ccccc2)c(Cl)c1 [compound 533]
3.9 | CCOc1nn(C)cc1C(=O)N(C1CC1)S(=O)(=O)c1ccc(Oc2cccc(Br)c2)cc1Cl [compound 534]
4 | CCOc1nn(C)cc1C(=O)N(C1CC1)S(=O)(=O)c1ccc(Oc2ccc(F)c(Cl)c2)cc1Cl [compound 536]
4.1 | CCOc1nn(C)cc1C(=O)N(C1CC1)S(=O)(=O)c1ccc(Oc2ccccc2Cl)c(Cl)c1 [compound 537]
4.1 | CCOc1nn(C)cc1C(=O)N(C1CC1)S(=O)(=O)c1ccc(Oc2ccc(C(F)(F)F)cc2)cc1Cl [compound 538]
4.3 | CCOc1nn(C)cc1C(=O)N(C1CC1)S(=O)(=O)c1ccc(Oc2ccc(C)cc2)c(Cl)c1 [compound 542]
4.3 | CCOc1nn(C)cc1C(=O)N(C1CC1)S(=O)(=O)c1ccc(Oc2ccc(Cl)cc2Cl)cc1Cl [compound 543]
4.3 | CCOc1nn(C)cc1C(=O)N(C1CC1)S(=O)(=O)c1ccc(Oc2ccc(Br)c(Cl)c2)cc1Cl [compound 544]
4.3 | CCOc1nn(C)cc1C(=O)N(C1CC1)S(=O)(=O)c1ccc(Oc2ccc(Cl)cc2)c(Cl)c1 [compound 545]
4.4 | CCOc1nn(C)cc1C(=O)N(C1CC1)S(=O)(=O)c1ccc(Oc2ccc(F)c(Cl)c2)c(Cl)c1 [compound 548]
4.4 | CCOc1nn(C)cc1C(=O)N(C1CC1)S(=O)(=O)c1ccc(Oc2cccc(C(F)(F)F)c2)c(Cl)c1 [compound 549]
4.5 | CCOc1nn(C)cc1C(=O)N(C1CC1)S(=O)(=O)c1ccc(Oc2ccc(Br)cc2)c(Cl)c1 [compound 552]
4.8 | CCOc1nn(C)cc1C(=O)N(C1CC1)S(=O)(=O)c1ccc(Oc2ccc(Cl)c(C(F)(F)F)c2)c(Cl)c1 [compound 556]
4.9 | CCOc1nn(C)cc1C(=O)N(C1CC1)S(=O)(=O)c1ccc(Oc2ccc(Br)c(Cl)c2)c(Cl)c1 [compound 558]
5 | CCOc1nn(C)cc1C(=O)N(C1CC1)S(=O)(=O)c1ccc(Oc2cc(Cl)cc(Cl)c2)c(Cl)c1 [compound 559]
